What was measured:
Format in all cases: in vivo
[1] = tested on: TREM-1; assay: Rat model of sepsis-induced cardiac dysfunction, intrinsic cardiac function by Millar catheter; parameters: dpdtmax/Ved / PRSW: unit not given beside the values; FEVG / ESPVR: unit not given here
Description: TREM-1- and TLT-1-derived peptides administration during rat model of sepsis-induced cardiac dysfunction is associated with an increase of intrinsic cardiac function measured by Millar catheter (FEVG, ESPVR, dpdtmax/Ved, PRSW).
(§1) Rats were anaesthetized with isoflurane and a 2 F high-fidelity micro-manometer catheter (SPR-407, Millar Institute, Houston, Tex., USA) was inserted into the LV via the right carotid artery. The Millar catheter was connected to a Harvard Data Acquisition System interfaced with a PC with the AcqKnowledge III software (ACQ 3.2).

[2] = tested on: TREM-1; assay: Rat model of myocardial ischemia-reperfusion, cardiac function by conductance catheter; parameters: PRSW: unit not given beside the values; Emax / ESPVR: unit not given here; conditions: six weeks after ischemia-reperfusion; 3 mg/kg once a day for 5 days
Procedure: Adult male Wistar rats were subjected to myocardial ischemia-reperfusion and were randomly grouped (n=10) to receive repeated TREM-1- and TLT-1-derived peptides (3 mg/kg in 0.2 mL NaCl 0.9% once a day for 5 days) or scrambled-LR12 (3 mg/kg in 0.2 mL NaCl 0.9% once a day for 5 days). Six weeks after myocardial injury, cardiac function was investigated under anaesthesia by using a conductance catheter. Emax, ESPVR, and PRSW were higher in animals treated with TREM-1- and TLT-1-derived peptides than in control rats. All p<0.02 [controls versus LR12]).
Animals received same surgery than in permanent ischemia, but with reperfusion of ischemic area by release of the LAD ligation after 60 minutes of ischemia. The same protocol as described above was then applied.
as §1
To investigate the role of TREM-1- and TLT-1-derived peptides in a more relevant model of MI, we performed a transient coronary artery ligation (ischemia-reperfusion model: IR) in rats. After randomisation, animals were then imaged under anaesthesia (micro-TEP) and administered with TREM-1- and TLT-1-derived peptides (3 mg/kg daily for 5 days i.p.) or LR12-scrambled peptide. Imaging was then repeated at 6 weeks before we studied cardiac function by using a conductance catheter (Millar).

[3] = molecular target: T1, TREM-1 (Mus musculus, UniProt Q9JKE2); assay: Mouse model of myocardial infarction, survival; conditions: 100 μg daily for 5 days i.p.
T1 construct: endogenous in cells; host or cells: living mice (C57BL, Balb/c, ApoE-/-), in vivo
T1 sequence (Q9JKE2 21-230): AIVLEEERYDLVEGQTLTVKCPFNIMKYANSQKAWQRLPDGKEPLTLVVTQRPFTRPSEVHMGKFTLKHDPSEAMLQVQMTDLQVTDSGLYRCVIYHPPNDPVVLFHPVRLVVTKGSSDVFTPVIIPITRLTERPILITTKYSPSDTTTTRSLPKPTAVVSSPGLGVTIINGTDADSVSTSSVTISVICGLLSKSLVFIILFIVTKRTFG
Procedure: Adult male Balb/c mice (20-23 g) were subjected to myocardial ischemia and were randomly grouped (n=10-15 per group) to receive repeated TREM-1- and TLT-1-derived peptides (100 μg in 0.2 mL NaCl 0.9% once a day for 5 days), scrambled-LR12 (100 μg in 0.2 mL NaCl 0.9% once a day for 5 days), or 10 μg anti-TREM-1 mAb in 0.2 mL NaCl 0.9% i.p. injections. Survival was monitored over 1 wk and analyzed by Log Rank test. (There were no deaths after the 5th day). Data are representative of at least 15 different experiments.
All procedures were performed on mice male C57BL/C ranging in age from 6-8 weeks. Mice were anesthetized by an intraperitoneal injection of xylazine (60 mg/kg) and fixed in supine position. The trachea was intubated and ventilated (the tidal volume was 200 μl/25 g and the respiratory rate was 120 breaths/min). After a left thoracotomy, the left coronary artery was identified and ligated with an 8-0 prolene surgical suture at 1.0 mm distal from tip of the left auricle. LAD occlusion was confirmed by a change in myocardial color from red to white in the ischemia area (Left ventricle). The chest was closed and the skin was sutured with 6-0 silk. […]
Mice were monitored after surgery for mortality. Mice were randomized to receive or not peptides (daily ip injection for 5 days, 5 mg/kg) and monitored for survival. […]

Row | Substance | ESPVR [1] | FEVG [1] | PRSW [1] | dpdtmax/Ved [1] | ESPVR [2] | Emax [2] | PRSW [2] | mice died [3]
1 | LQEEDAGEYGCMVDGAR (listed as Homo sapiens) [TLT1-LR17] | 2.5 ± 0.3 | 75.6 ± 7.2 | 145 ± 6 | 150 ± 12 | 2 ± 0.2 | 5.1 ± 0.6 | 105 ± 6 | –
2 | EDSGLY (listed as Homo sapiens) [TREM1-LP6-2] | 2.7 ± 0.1 | 79.4 ± 9.9 | 144 ± 6 | 155 ± 15 | 2.2 ± 0.1 | 6 ± 0.6 | 104 ± 5 | –
3 | LQEEDA (listed as Homo sapiens) [TLT1-LR6-1] | 2.9 ± 0.3 | 79.6 ± 7.4 | 142 ± 8 | 160 ± 15 | 2.4 ± 0.4 | 4.5 ± 0.6 | 102 ± 6 | –
4 | LQVEDS (listed as Homo sapiens) [TREM1-LP6-1] | 2.5 ± 0.3 | 76 ± 5.9 | 145 ± 6 | 150 ± 20 | 2 ± 0.3 | 5.5 ± 0.4 | 105 ± 6 | –
5 | GLYQCV (listed as Homo sapiens) [TREM1-LP6-3] | 2.9 ± 0.4 | 78.6 ± 7.4 | 139 ± 8 | 163 ± 10 | 2.3 ± 0.4 | 5.8 ± 0.5 | 99 ± 8 | –
6 | EDAGEY (listed as Homo sapiens) [TLT1-LR6-2] | 2.3 ± 0.2 | 75 ± 5.9 | 139 ± 10 | 155 ± 12 | 1.8 ± 0.1 | 6.5 ± 0.9 | 99 ± 8 | –
7 | LQVEDSGLYQCV (listed as Homo sapiens) [TREM1-LP12] | 2.8 ± 0.2 | 72 ± 9.4 | 139 ± 6 | 158 ± 18 | 2.3 ± 0.4 | 4.5 ± 0.4 | 99 ± 4 | –
8 | LQVEDSGLYQCVIYQPP (listed as Homo sapiens) [TREM1-LP17] | 2.7 ± 0.3 | 75.9 ± 8.9 | 150 + 8 | 156 ± 11 | 2.2 ± 0.3 | 5.9 ± 0.8 | 110 ± 5 | –
9 | GEYGCM (listed as Homo sapiens) [TLT-1LR6-3] | 2.2 ± 0.2 | 78 ± 8.7 | 149 ± 6 | 157 ± 10 | 1.7 ± 0.3 | 5.2 ± 0.4 | 109 ± 6 | –
10 | ELMEGGQECADY (synthetic peptide scramble) [TLT-1-LR12scr, reference compound] | 1.6 ± 0.3 | 39.9 ± 4.9 | 88 ± 8 | 61 ± 12 | 1.1 ± 0.3 | 2.7 ± 0.3 | 65 ± 8 | 40%

From patent US9657081B2, “Inhibiting peptides derived from triggering receptor expressed on myeloid cells-1 (TREM-1) TREM-like transcript 1 (TLT-1) for treatment of cardiovascular diseases” (INSERM (Institut National de la Sante et de la Recherche …, priority 2013, dated 2017)
